The results in this text go back to patent US20230339949A1, “HETEROCYCLIC SUBSTITUTED FUSED y-CARBOLINE DERIVATIVE, PREPARATION METHOD THEREFOR, INTERMEDIATE THEREOF AND USE THEREOF” (SHUJING BIOPHARMA CO., LTD, priority 2020, published 2023).

Like-named read-outs stand apart in the source and are kept apart here.

Test [1] addresses T1, D2L receptor (Homo sapiens, UniProt P14416).
T1 construct: expressed in transfected cells
Put plainly: Functional activity test on D2L receptor, cAMP detection (Gi antagonist test). The class given is cell-based. The conditions noted are these: cryopreserved CHO-K1/D2L/Gα15 cells, forskolin + dopamine EC90. An excerpt:
(§1) The antagonistic effects of the compounds of the present disclosure on D2L and D2S receptors were detected by cyclic adenosine monophosphate (cAMP) detection method at cell-level.
(§2) • (1) Test compound: compounds of the embodiment of the present disclosure, self-made. • (2) Control compound: dopamine hydrochloride (Sigma, H8502), (+)-Butaclamol hydrochloride (Sigma, D033). • (3) Stable cell line:
(§3) • (1) Preparation of test compounds: the compounds of the embodiments of the present disclosure were respectively dissolved in DMSO to prepare 10 mM mother liquor, and the mother liquor was stored in the nitrogen cabinet for later use. • (2) Preparation of control compound: the control compound was dissolved in DMSO to prepare 10 mM mother liquor, and the mother liquor was repackaged and stored in the refrigerator at −80° C. for later use. • (3) IBMX was dissolved in DMSO to prepare 0.5 M stock solution and the stock solution was cryopreserved at −80° C. • (4) Forskolin was dissolved in DMSO to prepare 1 mM stock solution and the stock solution was cryopreserved at −80° C. for later use. • (5) Experimental buffer: 5× stimulation buffer was diluted to 1× with ddH2O and IBMX with a final concentration of 0.5 mM was added thereto, and the solution was mixed well for later use.
(§4) • (1) Preparation of compounds: the test compounds and positive control compound (+)-Butaclamol hydrochloride were diluted gradient using Bravo in the compound plate (Greiner-781280), and the initial concentration of working solution was 20 μM, and the working solution was diluted at 4-fold for 10 concentrations and centrifuged at 1000 rpm for 1 minute for later use. • (2) Cryopreserved D2L cells: cells was taken out from the liquid nitrogen tank and thaw in a water bath at 37° C., and the cell suspension was transferred to a centrifuge tube containing HBSS buffer, and centrifuged at 750 rpm for 5 minutes.
(§5) Cultured D2S cells: after absorbing the culture medium, the cells were washed with 3 mL PBS, sucked out, digested with 0.05% Trypsin for 3 min, terminated with equal volume of culture medium, transferred to centrifuge tube, and centrifuged at 750 rpm for 5 minutes. After absorbing the liquid, the centrifuge tube was added with a buffer solution containing HBSS and re-suspend, and centrifuged at 750 rpm for 5 minutes. • (3) The supernatant was discarded, and the precipitate was re-suspended with proper amount of experimental buffer, and 20 μL was taken for cell counting. • (4) Appropriate amount of cell suspension was removed, and the cell suspension was diluted to 2×10^5 cells/mL with experimental buffer, and the cell plate (PerkinElmer-6008280) was added with 5 μL/well cell suspension, and centrifuged at 1000 rpm for 1 minute. • (5) 5 μL/well was transferred to the cell plate with Bravo, and the cell plate was centrifuged at 1000 rpm for 1 minute, then the cell plate was closed and incubated at room temperature for 15 minutes. • (6) Forskolin was transferred to the cell plate with Tecan-D300e, and Dopamine hydrochloride with a final concentration of EC90 was transferred to the cell plate. • (7) The cell plate was centrifuged at 1000 rpm for 1 minute, then sealed and incubated at room temperature for 45 minutes. • (8) Standard curve: cAMP with the stock solution concentration of 2848 nM was diluted 4-fold continuously at 8 points according to the initial maximum concentration of 712 nM, and 10 μL/well was taken out to add to the cell plate. • (9) 10 μL/well of detection solution containing cAMP-d2 and Anti-cAMP-Cryptate (diluted with pyrolysis buffer at 1:20) was added to the cell plate, and the cell plate was centrifuged at 1000 rpm for 1 minute, and incubated at room temperature without light for 1 hour. • (10) Detection: the cell plate was centrifuged at 1000 rpm for 1 minute, and the plate was read with Envision (excitation light 340 nm, emission light 620 nm and 665 nm). […]

Test [2] has as its target T2, 5-HT2A receptor (Homo sapiens, UniProt P28223).
T2 construct: expressed in transfected cells
Put plainly: Functional detection experiment of 5-HT2A receptor (cultured cells), calcium influx assay. The class given is cell-based. An excerpt: The antagonistic effect of the compound of the present disclosure on the 5-HT2A receptor was detected by a calcium influx assay at the cellular level.
• (1) Test compounds: compounds of the embodiments of the present disclosure, self-made. • (2) Control compound: serotonin hydrochloride 5-hydroxytryptamine (Sigma, H9523), Ketanserin (Targetmol, T1066). • (3) Stable cell line:
• (1) Preparation of test compounds: the compounds of the embodiments of the present disclosure were respectively dissolved in DMSO to prepare 10 mM mother liquor, and the mother liquor was stored in the nitrogen cabinet for later use. • (2) Preparation of control compound: the control compound was dissolved in DMSO to prepare 10 mM mother liquor, and the mother liquor was repackaged and stored in the refrigerator at -80° C. for later use. • (3) Preparation of 250 mM probenecid solution: 1 mL experimental buffer was added into a tube containing 77 mg powder, and the powder was dissolved by vortex oscillation. • (4) Preparation of 2× fluorescent probe solution: a bottle of fluorescent probe dry powder was taken out to balance to room temperature, and 10 mL of experimental buffer solution and 200 μL of 250 mM probenecid solution were added thereto, and the mixture was scrolled and let stand for 5 minutes to ensure complete dissolution. • (5) Experimental buffer HBSS: HBSS and HEPES were mixed evenly in a ratio of 50:1, stored in a refrigerator at 4° C., and heated at 37° C. when used.
• (1) Cells were taken out from the liquid nitrogen tank and melted in a water bath at 37° C. The surface of the cryopreservation tube was wiped with 75% alcohol and put in the biosafety cabinet. • (2) The cell suspension was transferred to a 15 mL centrifuge tube with 4 mL preheated plating medium, and the tube was centrifuged at 1000 rpm for 5 minutes. • (3) The supernatant was discarded, and 10 mL of plating medium was added and blown gently, and the mixture was transferred to a culture dish for growth. After the cells had adhered to the wall for 24 hours, they were replaced with growth medium for continuous culture.
• (1) The logarithmic growth cells was taken and the cells grew to about 85%-90%. The cells were performed the following operations: cell cleaning, digestion, termination, then transferred to a 15 mL centrifuge tube, and the tube was centrifuged at room temperature at 1000 rpm for 5 minutes. • (2) The supernatant was discarded, and a certain plating medium was added and blown gently. 20 μL of cell suspension was taken out and counted. • (3) Cells were diluted to 1×10^6 cells/mL and 20 μL of cell suspension was added to each well of the cell plate (Greiner-781946), so that the density of each well is 2×10^4 cells/well. • (4) The cell plate was incubated in an incubator with 5% CO2 at 37° C. for 16-24 hours. […]

The target of test [3] is T3, D2S receptor (Homo sapiens, UniProt P14416).
T3 construct: expressed in transfected cells
Put plainly: Functional activity test on D2S receptor, cAMP detection (Gi antagonist test). Format: cell-based. The conditions noted are these: cultured HEK293/D2S cells, forskolin + dopamine EC90.
Source text: as §1, §2, §3, §4, §5

Test [4] has as its system MK-801 induced hyperactivity behavior. Put plainly: MK-801 induced hyperactivity behavior in mice. Format: in vivo, ICR mice. Particulars: for ED50: Mus musculus, read-out: ED50 (half effective dose). The method, then:
The efficacy of the compounds of the present disclosure was evaluated by high activity model of mice induced by intraperitoneal injection of MK-801.
(§6) Experimental animals: ICR mice, male, 8 mice/group, Spelford (Beijing) Biotechnology Co., Ltd.
Preparation of drug: the test compounds were taken, and pure water was added, and ultrasonication was performed.
Administration route and method: gavage administration, 10 mL/kg (body weight).
(§7) Administration frequency and duration: single dose.
Animals were stratified by body weight and then randomly divided into blank group, model group, and administration group, and detailed information of administration is shown in the following table.
Mice were stratified according to body weight and then randomly divided into model group, blank group and each administration group. One hour after the gavage administration of solvent or drug, 0.3 mg/kg MK-801 was injected intraperitoneally (the blank group was injected with the same volume of physiological saline), and then the mice were put into an independent activity box (a black polyethylene box with the specification of 29 cm×29 cm×30 cm) for video recording for 60 minutes, and video analysis was performed at the end of the recording to evaluate the activity of the mice.
(§8) The experimental data were expressed as x±SD, and SPSS statistical software was used to test the homogeneity of variance. If the variance was homogeneous, single factor analysis of variance was performed, and Dunnett t test is used for pairwise comparison. The ED50 was calculated by nonlinear fitting with GraphPad Primis5 software.

Test [5] relates to DOI-induced head-shaking behavior. Put plainly: DOI-induced head-shaking behavior in mice. The class given is in vivo, ICR mice. The conditions noted are these: Mus musculus, read-out: ED50 (half effective dose). The method, then: The efficacy of the compounds of the present disclosure was evaluated by the mice model of head-shaking behavior induced by intraperitoneal injection of (±) DOI (a hallucinogenic agent usually used to replicate anti-schizophrenic animal model).
as §6
Preparation of drug: the test compounds were taken, and solvent was added, and ultrasonication was performed.
Administration route and method: oral gavage administration, 10 mL/kg (body weight).
as §7
Animals were stratified by body weight and then randomly divided into blank group, model group, and administration groups, and detailed information of administration is shown in the following table.
Mice were stratified according to body weight and then randomly divided into model group, blank group and each administration group. One hour after the animals were gavage administration of the solvent or drugs, they were placed in a beaker (13 cm in diameter, 19 cm in height) with fresh padding, and the model drug DOI was injected intraperitoneally at a dose of 1 mg/kg. The times of head-shaking were recorded within 0-20 minutes after DOI was injected intraperitoneally.
Head-shaking behavior is defined as rapid rotational twitch of mouse's head or wet dog-like shaking, which should be different from normal hair grooming or inquiry behavior.
as §8

Where [6] appears, read: cultured CHO-K1/5-HT2A cells, calcium influx (FLIPR), antagonist mode vs agonist EC80, read-out: 5-HT2A IC50.
Where [7] appears, read: male ICR mice, single gavage dose 1 h before MK-801 0.3 mg/kg i.p., activity recorded 60 min.

T3 sequence (P14416 1-414 isoform P14416-2): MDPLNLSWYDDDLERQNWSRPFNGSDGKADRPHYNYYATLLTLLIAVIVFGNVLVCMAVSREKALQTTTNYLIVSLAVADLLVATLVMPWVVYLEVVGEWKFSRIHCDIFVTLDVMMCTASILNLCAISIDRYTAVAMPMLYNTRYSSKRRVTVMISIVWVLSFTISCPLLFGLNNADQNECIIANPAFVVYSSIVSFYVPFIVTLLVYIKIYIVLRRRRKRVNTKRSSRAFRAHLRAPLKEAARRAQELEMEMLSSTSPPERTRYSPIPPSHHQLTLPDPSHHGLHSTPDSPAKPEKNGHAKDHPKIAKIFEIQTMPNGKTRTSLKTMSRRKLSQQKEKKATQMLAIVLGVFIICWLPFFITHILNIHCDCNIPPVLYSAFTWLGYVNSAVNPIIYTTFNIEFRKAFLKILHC
T1 sequence (P14416 whole entry): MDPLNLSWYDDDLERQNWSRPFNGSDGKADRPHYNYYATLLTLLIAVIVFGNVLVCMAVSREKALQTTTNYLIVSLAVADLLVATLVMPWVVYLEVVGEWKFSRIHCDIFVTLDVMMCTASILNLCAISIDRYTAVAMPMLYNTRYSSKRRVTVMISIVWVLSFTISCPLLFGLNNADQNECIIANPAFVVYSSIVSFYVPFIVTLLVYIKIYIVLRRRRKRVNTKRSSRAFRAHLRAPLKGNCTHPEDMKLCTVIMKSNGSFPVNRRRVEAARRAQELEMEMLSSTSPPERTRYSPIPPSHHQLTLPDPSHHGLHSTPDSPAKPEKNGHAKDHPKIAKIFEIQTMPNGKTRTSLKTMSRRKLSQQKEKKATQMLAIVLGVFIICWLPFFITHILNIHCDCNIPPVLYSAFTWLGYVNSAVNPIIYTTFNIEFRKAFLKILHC
T2 sequence (P28223 whole entry): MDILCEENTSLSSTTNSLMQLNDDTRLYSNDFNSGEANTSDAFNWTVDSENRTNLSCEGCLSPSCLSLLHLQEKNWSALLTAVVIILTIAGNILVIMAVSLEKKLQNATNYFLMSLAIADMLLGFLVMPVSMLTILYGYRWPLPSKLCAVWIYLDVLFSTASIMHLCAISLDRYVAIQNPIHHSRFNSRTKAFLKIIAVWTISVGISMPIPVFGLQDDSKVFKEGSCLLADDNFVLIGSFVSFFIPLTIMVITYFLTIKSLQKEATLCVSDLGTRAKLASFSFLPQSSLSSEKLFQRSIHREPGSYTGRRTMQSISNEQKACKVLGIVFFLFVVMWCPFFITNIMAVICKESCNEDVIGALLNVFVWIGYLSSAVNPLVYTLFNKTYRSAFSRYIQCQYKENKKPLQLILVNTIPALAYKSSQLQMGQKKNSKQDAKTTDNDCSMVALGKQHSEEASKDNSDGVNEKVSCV

The IC50 is the concentration needed to halve the response being measured. The ED50 is the midpoint of the dose-response relation. On to `CN1C(=O)CN2c3c(cccc31)C1CN(CCCC(=O)c3ccc(F)cc3)CCC12` (centres unmarked) [Comparative embodiment 1, 8-(4-(4-fluorophenyl)-4-oxobutyl)-3-methyl-6b,7,8,9,10,10a-hexahydro-1H-pyrido [3′,4′:4,5]pyrrolo[1,2,3-de]quinoxalin-2(3H)-one, reference compound], for which the IC50 is 200 nM in test [1], 44.4 nM in test [2] (setting [6]) and 364 nM in test [3]. The ED50 in test [4] (setting [7]) was found to be 1.28 mg/kg. Besides, in test [4] (setting [7]), the “MED (lowest effective dose)” value worked out at 1 mg/kg.

On to `CN1C(=O)CN2c3c(cccc31)[C@@H]1CN(CCCC(=O)c3ccc(F)cc3)CC[C@@H]12` [Comparative embodiment 1-A, reference compound], for which the half-inhibitory concentration (IC50) in test [1] turned out to be 88.8 nM; in test [2] (setting [6]), 9.11 nM; in test [3] it was 264 nM.

For the compound `CN1CCN2c3c(cccc31)C1CN(CCCC(=O)c3ccc(F)cc3)CCC12` (centres unmarked) [Comparative embodiment 2, 1-(4-fluorophenyl)-4-(3-methyl-2,3,6b,9,10,10a-hexahydro-1H-pyrido[3′,4′:4,5]pyrrolo[1,2,3-de]quinoxalin-8(7H)-yl)butan-1-one, reference compound], the results for the IC50 in test [1] and in test [3] were 35.8 nM and 622 nM, respectively.

Turning to `CN1C(=O)CN2c3c1cccc3[C@@]1(C)CN(CCCC(=O)c3ccc(F)cc3)CC[C@@H]21` [Embodiment 1-B, (6bS,10aR)-8-(4-(4-fluorophenyl)-4-oxobutyl)-3,6b-dimethyl-6b,7,8,9,10,10a-hexahydro-1H-pyrido[3′,4′:4,5]pyrrolo [1,2,3-de]quinoxalin-2(3H)-one], the IC50 in test [1] amounted to 15.5 nM; in test [2] (setting [6]), 108 nM; in test [3], 63.1 nM.

Consider `CCN1C(=O)CN2c3c1cccc3C1(C)CN(CCCC(=O)c3ccc(F)cc3)CCC21` (centres unmarked) [Embodiment 3, 3-ethyl-8-(4-(4-fluorophenyl)-4-oxobutyl)-6b-methyl-6b,7,8,9,10,10a-hexahydro-1H-pyrido[3′,4′:4,5]pyrrolo[1,2,3-de]quinoxalin-2(3H)-one], for which the IC50 in test [1] worked out at 51.4 nM; in test [3], 207 nM. In test [5], the ED50 stood at 0.21 mg/kg.

Regarding `CN1C(=O)C(C)(C)N2c3c1cccc3C1(C)CN(CCCC(=O)c3ccc(F)cc3)CCC21` (centres unmarked) [Embodiment 4, 8-(4-(4-fluorophenyl)-4-oxobutyl)-1,1,3,6b-tetramethyl-6b,7,8,9,10,10a-hexahydro-1H-pyrido [3′,4′:4,5]pyrrolo[1,2,3-de]quinoxalin-2(3H)-one], the IC50 in test [2] came out at 19.7 nM. For the same compound, the ED50 in test [5] came out at 0.42 mg/kg.

Consider `Cn1c(=O)c(=O)n2c3c(cccc31)C1(C)CN(CCCC(=O)c3ccc(F)cc3)CCC21` (centres unmarked) [Embodiment 5, 8-(4-(4-fluorophenyl)-4-oxobutyl)-3,6b-dimethyl-6b,7,8,9,10,10a-hexahydro-1H-pyrido[3′,4′:4,5]pyrrolo[1,2,3-de]quinoxaline-1,2(3H)-dione], for which the IC50 in test [1] was 13.1 nM; in test [3], 93.4 nM.

In the case of `CN1CCN2c3c1cccc3C1(C)CN(CCCC(=O)c3ccc(F)cc3)CCC21` (centres unmarked) [Embodiment 7, 4-(3,6b-dimethyl-2,3,6b,9,10,10a-hexahydro-1H-pyrido[3′,4′:4,5]pyrrolo[1,2,3-de]quinoxalin-8(7H)-yl)-1-(4-fluorophenyl)butan-1-one], the IC50 in test [2] worked out at 3.5 nM. Further, in test [4], the ED50 was 0.09 mg/kg. For the same compound, the “MED (lowest effective dose)” value in test [4] (setting [7]) is on record as 0.1 mg/kg.
